Experimental data: ChEMBL document CHEMBL1143887, “Novel amino linkers enabling efficient labeling and convenient purification of amino-modified oligonucleotides” (Bioorg Med Chem, 2008)

Test: Dissociation constant, pKa of the compound
Assay type: physicochemical

pKa: 8.9
Structure (SMILES): NC[C@H](COCc1cccc2ccccc12)OC(=O)NCCCCCCO
